Measurements taken from paper PMC11251196, “Actinium chelation and crystallization in a macromolecular scaffold” (Nature Communications, 2024).

Experiments:
Type in all cases: binding
[1] = molecular target: T1, siderocalin (Scn) (Homo sapiens, UniProt P80188); assay: tryptophan fluorescence quenching titration of metal-free ligand, pH […]
T1 construct: gene LCN2

[2] = molecular target: T1, siderocalin (Scn); assay: tryptophan fluorescence quenching titration, pH […]; crystal structure at […] Å
[3] = molecular target: T1, siderocalin (Scn); assay: as above; remark: listed apart in the source

T1 sequence (P80188 21-198): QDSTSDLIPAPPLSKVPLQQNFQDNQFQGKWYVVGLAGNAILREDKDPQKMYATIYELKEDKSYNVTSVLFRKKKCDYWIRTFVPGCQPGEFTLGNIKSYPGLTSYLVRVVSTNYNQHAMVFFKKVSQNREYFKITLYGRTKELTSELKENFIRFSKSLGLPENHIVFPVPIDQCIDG

Compound: O=C(NCCCN(CCCCN(CCCNC(=O)c1cccc(=O)n1O)C(=O)c1cccc(=O)n1O)C(=O)c1cccc(=O)n1O)c1cccc(=O)n1O [HOPO, 3,4,3-LI(1,2-HOPO)]
- Kd [1]: 43 nM

Compound: O=C(NCCCN(CCCCN(CCCNC(=O)c1cccc(=O)n1O)C(=O)c1cccc(=O)n1[O-])C(=O)c1cccc(=O)n1[O-])c1cccc(=O)n1[O-].[Ac+3] [[Ac^III(HOPO)]^1–]
- Kd [2]: 6 nM

Compound: O=C(NCCCN(CCCCN(CCCNC(=O)c1cccc(=O)n1O)C(=O)c1cccc(=O)n1[O-])C(=O)c1cccc(=O)n1[O-])c1cccc(=O)n1[O-].[La+3] [[La^III(HOPO)]^1–]
- Kd [3]: 20 nM
